Measurements: PubChem BioAssay AID1963867 (Molecular Pharmacology Branch, DTP, NCI, 2024)

System: KRAS-mutant PDC tumor spheroid with HUVEC/MSC, viability
Experiment: Anticancer human tumor 327498-153-R-J2-PDC patient-derived uterine carcinosarcoma cell line growth inhibition [KRAS2]
Conditions: for IC50: curve of first compound; for viability, T/C: stronger effect = lower value
Procedure, shortened: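 Combination screen of spheroid viability in tumor-cell co-cultures with endothelial (HUVEC) and mesenchymal stem cell stroma. Each agent was tested in half-log dilutions, topping at clinical Cmax or at 10 microM without a known Cmax.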

[1] = second compound 0.1 µM, first compound 0.0316 µM
[2] = second compound 0.1 µM, first compound 0.1 µM
[3] = second compound 0.1 µM, first compound 0.316 µM
[4] = second compound 0.1 µM, first compound 1 µM
[5] = second compound 0.316 µM, first compound 0.0316 µM
[6] = second compound 0.316 µM, first compound 0.1 µM
[7] = second compound 0.316 µM, first compound 0.316 µM
[8] = second compound 0.316 µM, first compound 1 µM
[9] = second compound 1 µM, first compound 0.0316 µM
[10] = second compound 1 µM, first compound 0.1 µM
[11] = second compound 1 µM, first compound 0.316 µM
[12] = second compound 1 µM, first compound 1 µM
[13] = second compound 3.16 µM, first compound 0.0316 µM
[14] = second compound 3.16 µM, first compound 0.1 µM
[15] = second compound 3.16 µM, first compound 0.316 µM
[16] = second compound 3.16 µM, first compound 1 µM
[17] = second compound 10 µM, first compound 0.0316 µM
[18] = second compound 10 µM, first compound 0.1 µM
[19] = second compound 10 µM, first compound 0.316 µM
[20] = second compound 10 µM, first compound 1 µM
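Further: spheroids exposed to agents for seven days before reading.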
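Wherever viability, T/C is given: 100% = DMSO vehicle wells so lower means fewer viable cells.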

SMILES	IC50 (second compound 0.1 µM)	IC50 (second compound 0.316 µM)	IC50 (second compound 1 µM)	IC50 (second compound 3.16 µM)	IC50 (second compound 10 µM)	viability, T/C [1]	viability, T/C [2]	viability, T/C [3]	viability, T/C [4]	viability, T/C [5]	viability, T/C [6]	viability, T/C [7]	viability, T/C [8]	viability, T/C [9]	viability, T/C [10]	viability, T/C [11]	viability, T/C [12]	viability, T/C [13]	viability, T/C [14]	viability, T/C [15]	other results
CC(C)NCC(C(=O)N1CCN(c2ncnc3c2C(C)CC3O)CC1)c1ccc(Cl)cc1 (stereo not given) + CNCc1ccccc1-c1csc(C(C)Nc2nc(C)nc3cc(OC)c(OC)cc23)c1	216 nM	147 nM	115 nM	< 31.6 nM	< 31.6 nM	77.9%	55.6%	45%	34.7%	63.6%	55.1%	40.9%	27.5%	66.3%	52.5%	36.1%	24.6%	0.12%	0.09%	0.09%	viability, T/C (second compound 0.1 µM, first compound 3.16 µM): 26.4%; viability, T/C (second compound 0.1 µM, first compound 10 µM): 15%; viability, T/C (second compound 0.316 µM, first compound 3.16 µM): 22.1%; viability, T/C (second compound 0.316 µM, first compound 10 µM): 14.6%; viability, T/C (second compound 1 µM, first compound 3.16 µM): 18.2%; viability, T/C (second compound 1 µM, first compound 10 µM): 11.5%; viability, T/C [16]: 0.07%; viability, T/C (second compound 3.16 µM, first compound 3.16 µM): 0.3%; viability, T/C (second compound 3.16 µM, first compound 10 µM): 0.16%; viability, T/C [17]: 0.23%; viability, T/C [18]: 0.44%; viability, T/C [19]: 0.16%; viability, T/C [20]: 0.16%; viability, T/C (second compound 10 µM, first compound 3.16 µM): 0.16%; viability, T/C (second compound 10 µM, first compound 10 µM): 0.23%
CCN1CCN(Cc2ccc(Nc3ncc(F)c(-c4cc(F)c5nc(C)n(C(C)C)c5c4)n3)nc2)CC1 + CNCc1ccccc1-c1csc(C(C)Nc2nc(C)nc3cc(OC)c(OC)cc23)c1	42.9 nM	13.1 nM	9.26 nM	< 3.16 nM	< 3.16 nM	52.9%	37.5%	41.7%	47%	41.3%	35.5%	39.6%	43.9%	36.4%	34.5%	36.2%	21.8%	0.11%	0.06%	0.24%	viability, T/C (second compound 0.1 µM, first compound 0.00316 µM): 65.2%; viability, T/C (second compound 0.1 µM, first compound 0.01 µM): 58.8%; viability, T/C (second compound 0.316 µM, first compound 0.00316 µM): 69.4%; viability, T/C (second compound 0.316 µM, first compound 0.01 µM): 52.8%; viability, T/C (second compound 1 µM, first compound 0.00316 µM): 72.7%; viability, T/C (second compound 1 µM, first compound 0.01 µM): 46.9%; viability, T/C (second compound 3.16 µM, first compound 0.00316 µM): 0.58%; viability, T/C (second compound 3.16 µM, first compound 0.01 µM): 0.79%; viability, T/C [16]: 0.25%; viability, T/C (second compound 10 µM, first compound 0.00316 µM): 0.56%; viability, T/C (second compound 10 µM, first compound 0.01 µM): 0.69%; viability, T/C [17]: 0.91%; viability, T/C [18]: 0.68%; viability, T/C [19]: 0.69%; viability, T/C [20]: 0.69%
